From patent publication US8603945B2, “Methods and compositions for providing salicyclic acid-independent pathogen resistance in plants” (The Regents of the University of California, priority 2008, dated 2013)
“Also recorded” adds a separate entry of the source. Like-named read-outs stand apart in the source and are kept apart here.

What was measured:
[1] = test system: −333_CaBP22::GUS; test: −333_CaBP22::GUS reporter induction in one-week old seedlings grown in liquid medium (Xgluc staining / MUG assay); type: in vivo, Arabidopsis; conditions: for EC50: −333_CaBP22::GUS, MUG assay, read-out: EC50 value (effective concentration leading to a half-maximal response)
Description: A: Structure of DCA. B/C: Dose-response curves. One-week old −333_CaBP22::GUS seedlings were grown in liquid medium and incubated with the indicated concentrations of DCA (67) or SA for 24 h prior to Xgluc staining (blue, panel B) or quantitative assays for GUS activity using 4-methyl umbelliferyl-glucuronide (MUG, panel C).
LURP expression appears to be controlled by a multitude of defense regulators including AtWRKY70 and so far unknown transcription factors. […] Thus LURP-promoter/reporter systems are useful tools to screen for defense inducing chemicals. A 333_CaBP22::GUS line was used to screen chemical libraries of the Center for Plant Cell Biology at UC-Riverside for substances that induce activity of this reporter in the absence of pathogens. One week old seedlings of the reporter line grown in 96 well plates with liquid MS medium were treated with library chemicals at a final concentration of 4-20 microM in 0.001% DMSO and stained with X-Gluc to detect GUS activity 24 h later (FIG. 2). The library chemicals were transferred from 384 well plates to the 96 well screening plates by a “96 pin-tool” using a pipetting robot.
Most of the identified −333_CaBP22::GUS-inducers are structurally related to the defense hormone salicylic acid (SA). One of these compounds, 3,5-Dichloroanthranilic acid (DCA, FIG. 3A) to be particularly efficient in inducing −333_CaBP22::GUS expression. The chemical structure of this compound was confirmed by NMR and MS analyses. […] Thus, DCA has a high specificity for its cellular target. Consistent with this the EC50 value (effective concentration leading to a half-maximal response) of DCA is 6 uM (FIG. 3C), which is lower than the published EC50 value for PR1 induction by SA and its functional analog INA (65 and 10 uM, respectively; Wendehenne et al., 1998; Pillonel, 2001).

[2] = test system: HpNoco2 (virulent Peronospora); test: HpNoco2 disease resistance assay on soil grown seedlings (spore / sporangiophore counts 7 dpi); type: in vivo, Arabidopsis
Description: (A) RT-PCR analysis of CaBP22 and WRKY70 expression in Col-0 (wild type) and mutant backgrounds 24 hours after spraying 2 week old seedlings with water (un), 1 mM SA, or 100 μM DCA. ACT8 is shown as loading control. […] (B) Two week old seedlings were sprayed with virulent HpNoco2 24 hours after pre-treatment with 100 uM DCA. Spores were counted 7 days after spray infection. Means and standard errors were calculated from three independent experiments. Mann-Whitney U test (p<0.05) was used to determine significant differences among mutants.
A: Extent of disease susceptibility/resistance determined by counting the numbers of Peronospora sproangiophores of 17 day old seedlings 7 d after spray-inoculation with 5E4 HpNoco2 spores/ml. 24 h prior to infection with Noco2 the aerial parts of the soil grown seedlings were sprayed with the indicated concentrations of DCA (compound 67) or SA. Three replicates each with at least 30 seedlings per treatment gave similar results. […] Concentrations higher than 100 μM caused cell death, as indicated by reduced GUS staining.
(A) Chemical structures of DCA analogs analyzed. (B) Fluorometric analysis of GUS activities induced by DCA analogs. Proteins were extracted from 2 week old soil grown Col-0 seedlings 48 hours after spray-treatment with compounds at the indicated concentrations (uM). Means and standard errors calculated from 3 independent replicates. (c) HpNoco2 growth inhibition assay. 2 week old soil grown Col-0 seedlings were spray-infected with HpNoco2 48 hours after treatment with varying concentrations (uM) of each DCA analog. Seedlings were assayed 7 dpi for Peronospora growth (spore counts). 100% inhibition=0 spores. Assay was repeated three times with similar results.
DCA induces disease resistance. Time-course experiment with 2-week old Col-0 seedlings that were sprayed with 100 uM of the respective compounds at the indicated times prior to HpNoco2 (3×10^4 spores/ml) spray-infection. Spores were counted 7 dpi.

[3] = test system: Pst DC3000; test: Pst DC3000 growth in liquid culture (OD600); type: cell-based, Pseudomonas syringae; conditions: 100 um in liquid culture
[4] = test system: Pst DC3000; test: Pst DC3000 disease symptoms in cherry tomato seedlings (swab inoculation); type: in vivo; conditions: 500 uM, sprayed two days prior to inoculation
Description: (A &B) 14 day old soil grown Arabidopsis Col-0 seedlings were pre-treated with 100 uM of the indicated chemical then dip inoculated with Pst DC3000. (A) Photos taken 5 dpi. (B) Quantification of Pst DC3000 growth by counting colony forming units (cfu) at day 0 (grey bars) or day 3 (black bars). Significant differences were determined by Mann-Whitney U tests (p<0.05). (C) Pst DC3000 grown in liquid culture with 100 um of the indicated chemicals or 100 ug/ml hygromycin (HYG). OD600 reflecting bacterial density was measured at indicated times (hours) after inoculation. Standard errors were all less than 0.05 so are not visible on the graph. (D) Two week old cherry tomato seedlings sprayed 0.5 mM DCA, 4 mM SA or mock-treated two days prior to swab inoculation with Pst DC3000 (OD600=0.4). Photos were taken 6 days after Pst challenge.

[5] = test system: −333_CaBP22::GUS; test: GUS activity after spray-treatment of soil grown seedlings (structure-activity analysis, FIG. 5B, FIG. 8B); type: in vivo, Arabidopsis
Description: (A) Chemical structures of DCA analogs analyzed. […] Proteins were extracted from 2 week old soil grown Col-0 seedlings 48 hours after spray-treatment with compounds at the indicated concentrations (uM). Means and standard errors calculated from 3 independent replicates. (c) HpNoco2 growth inhibition assay. 2 week old soil grown Col-0 seedlings were spray-infected with HpNoco2 48 hours after treatment with varying concentrations (uM) of each DCA analog. Seedlings were assayed 7 dpi for Peronospora growth (spore counts). 100% inhibition=0 spores.
DCA and the known SA-analog INA are structurally related. To compare their activities and to gain further understanding on structural features required for their defense inducing activities, a structure function analysis (SAR) was performed using multiple derivatives of DCA and INA (FIG. 8A).

[6] = test system: cluster of 131 Arabidopsis genes (Table 1); test: Affymetrix ATH1 whole genome microarray of induced transcriptional responses; type: in vivo
Description: This transient activity of DCA functionally discriminates it from INA and allows us to precisely correlate molecular event, such as transcriptional changes, with disease resistance. Therefore we performed a set of microarray experiments with Affymetrix ATH1 Arabidopsis whole genome chips profiling DCA- and INA-induced transcriptional responses at 48 h and 6 d post treatment. […] The reference accession numbers and information can be used by one of skill in the art to obtain the sequences and additional information from public databases available at the time of filing.

Nc1c(Cl)cc(Cl)cc1C(=O)O [DCA, 3,5-Dichloroanthranilic acid]
EC50 ([1]; Arabidopsis thaliana, 24 h, 24 h): 6 µM
concentration at which active as inducer of −333_CaBP22::GUS ([1]; liquid medium, 24 h, FIG. 3B): 0.1 µM
active at x-fold lower concentrations than SA (−333_CaBP22::GUS induction) ([1]; versus SA, FIG. 3B): 10 fold
EC50 ([1]; 24 h): 7 µM
resistance to HpNoco2 in npr1 mutant ([2]; 100 uM pre-treatment 24 h, npr1 mutant): slight reduction
resistance to HpNoco2 in wrky70 mutant ([2]; 100 uM pre-treatment 24 h, wrky70 mutant): partially reduced
duration of defense-inducing activity ([2]; 100 uM, time-course, FIG. 9): only transiently active
time after treatment by which strong disease resistance is reached ([2]; 100 uM, time-course, FIG. 9): ≤ 1 h
efficiency in inducing resistance to HpNoco2 (defense inducing activity) ([2]; infection 48 hours after treatment, structure-activity analysis): nearly identical; also recorded: equally efficient
concentration giving efficient induction of disease resistance against virulent Peronospora (as low as) ([2]; sprayed on aerial parts of soil grown seedlings 24 h prior to HpNoco2): 10 µM
growth of Pst DC3000 in in vitro cultures [3]: does not affect growth
Pst DC3000 mediated disease symptoms in tomato [4]: suppressed Pst DC3000 mediated disease symptoms such as chlorosis
efficiency in inducing −333_CaBP22::GUS expression (defense inducing activity) ([5]; 48 hours after spray-treatment, structure-activity analysis): nearly identical
reporter gene expression after spraying aerial parts ([5]; spraying of 10-100 uM): induced reporter gene expression
up-regulation of cluster of 131 genes at 48 h post treatment ([6]; 48 h post treatment): significantly up-regulated
up-regulation of cluster of 131 genes at 6 d post treatment ([6]; 6 d post treatment): not at 6 d post DCA treatment
